In US20240190880A1 (THE REGENTS OF THE UNIVERSITY OF MICHIGAN, priority 2021, published 2024) one finds DC50 data, which are given here for seven molecules.

One may read the DC50 as the concentration at which degradation of the target reaches its halfway point.

A value given as a limit tells only on which side of the number the result lay.

The first experiment has as its target T1, ER (Homo sapiens, UniProt P03372).
T1 construct: host or cells: T47D and MCF7 human breast cancer cells
T1 sequence (P03372 1-595): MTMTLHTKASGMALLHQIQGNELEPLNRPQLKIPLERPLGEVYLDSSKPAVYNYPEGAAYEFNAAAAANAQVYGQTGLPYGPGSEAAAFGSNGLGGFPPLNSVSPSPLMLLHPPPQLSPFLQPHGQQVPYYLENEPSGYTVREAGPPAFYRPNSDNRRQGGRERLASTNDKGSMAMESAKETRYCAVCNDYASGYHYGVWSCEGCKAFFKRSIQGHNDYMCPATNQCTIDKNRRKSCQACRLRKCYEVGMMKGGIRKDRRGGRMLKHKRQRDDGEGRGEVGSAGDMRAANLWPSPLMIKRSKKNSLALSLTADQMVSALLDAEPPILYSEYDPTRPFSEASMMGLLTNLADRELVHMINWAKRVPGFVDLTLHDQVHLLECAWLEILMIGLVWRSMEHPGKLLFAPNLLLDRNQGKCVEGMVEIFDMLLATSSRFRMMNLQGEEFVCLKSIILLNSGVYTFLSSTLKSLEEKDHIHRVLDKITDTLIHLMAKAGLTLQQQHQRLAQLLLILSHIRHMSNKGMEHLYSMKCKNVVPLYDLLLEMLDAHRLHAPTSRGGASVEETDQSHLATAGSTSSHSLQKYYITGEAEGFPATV
Kind of experiment: ER degradation activity, in-cell western blot analysis in T47D cells. The format is cell-based. Conditions: 16 hours, Table A does not say which cell line (T47D or MCF7), read-out: Potency (DC50). A digest of the protocol: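 Read-out is near-infrared fluorescence from an in-cell western, expressed as ER percentage relative to untreated and DMSO controls taken as 100%. T47D breast cancer cells received compound for 16 h in 0.5% DMSO.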
In the case of `O=C1CCC(N2C(=O)c3cc4c(cc3C2=O)CN(C(=O)C2CCN(C3CCN(c5ccc([C@@H]6c7ccc(O)cc7CC[C@@H]6c6ccc(F)cc6)cc5)CC3)CC2)C4)C(=O)N1` (mixture of isomers) [E 12, Rac-2-(2,6-dioxopiperidin-3-yl)-6-(1′-(4-((1R,2S)-2-(4-fluorophenyl)-6-hydroxy-1,2,3,4-tetrahydronaphthalen-1-yl)phenyl)-[1,4′-bipiperidine]-4-carbonyl)-6,7-dihydropyrrolo[3,4-f]isoindole-1,3(2H,5H)-dione], the DC50 is < 10 nM.

On to `C[C@@H]1Cc2c([nH]c3ccccc23)[C@@H](c2c(F)cc(C3CCC(CN4CC(CN5Cc6cc7c(cc6C5)C(=O)N(C5CCC(=O)NC5=O)C7=O)C4)CC3)cc2F)N1CC(F)F` (stereo partly drawn) [E 283, 6-((1-((4-(4-((1R,3R)-2-(2,2-difluoroethyl)-3-methyl-2,3,4,9-tetrahydro-1H-pyrido[3,4-b]indol-1-yl)-3,5-difluorophenyl)cyclohexyl)methyl)azetidin-3-yl)methyl)-2-(2,6-dioxopiperidin-3-yl)-6,7-dihydropyrrolo[3,4-f]isoindole-1,3(2H,5H)-dione], for which the DC50 is > 100 nM.

In the case of `C[C@@H]1Cc2c([nH]c3ccccc23)[C@@H](c2c(F)cc(N3CCC(CN4CCC5(CC4)CC(N4Cc6cc7c(cc6C4)C(=O)N(C4CCC(=O)NC4=O)C7=O)C5)CC3)cc2F)N1CC(F)F` (stereo partly drawn) [E 132, 6-(7-((1-(4-((1R,3R)-2-(2,2-difluoroethyl)-3-methyl-2,3,4,9-tetrahydro-1H-pyrido[3,4-b]indol-1-yl)-3,5-difluorophenyl)piperidin-4-yl)methyl)-7-azaspiro[3.5]nonan-2-yl)-2-(2,6-dioxopiperidin-3-yl)-6,7-dihydropyrrolo[3,4-f]isoindole-1,3(2H,5H)-dione], the DC50 was 10 to 100 nM.

With `O=C1CCC(N2C(=O)c3cc4c(cc3C2=O)CN(C(=O)CN2CCC3(CCN(c5ccc([C@@H]6c7ccc(O)cc7CC[C@@H]6c6ccccc6)cc5)CC3)C2)C4)C(=O)N1` (mixture of isomers) [E 140, Rac-2-(2,6-dioxopiperidin-3-yl)-6-(2-(8-(4-((1R,2S)-6-hydroxy-2-phenyl-1,2,3,4-tetrahydronaphthalen-1-yl)phenyl)-2,8-diazaspiro[4.5]decan-2-yl)acetyl)-6,7-dihydropyrrolo[3,4-f]isoindole-1,3(2H,5H)-dione], the DC50 is > 100 nM.

In the case of `O=C1CCC(N2C(=O)c3cc4c(cc3C2=O)CN(C(=O)[C@H]2CC[C@H](N3CC(Nc5ccc([C@H]6c7ccc(O)cc7CC[C@H]6c6ccccc6)cc5)C3)CC2)C4)C(=O)N1` (stereo partly drawn) [E 391, 2-(2,6-dioxopiperidin-3-yl)-6-((1S,4r)-4-(3-((4-((1S,2R)-6-hydroxy-2-phenyl-1,2,3,4-tetrahydronaphthalen-1-yl)phenyl)amino)azetidin-1-yl)cyclohexane-1-carbonyl)-6,7-dihydropyrrolo[3,4-f]isoindole-1,3(2H,5H)-dione], the DC50 is > 100 nM.

Still in this experiment, the particulars now being: compounds 16 hours, Table A does not say whether T47D or MCF7, read-out: Potency (DC50).
As to `C[C@@H]1Cc2c([nH]c3ccccc23)[C@@H](c2c(F)cc(C3CCC(C(=O)N4CCC(N5Cc6cc7c(cc6C5)C(=O)N(C5CCC(=O)NC5=O)C7=O)CC4)CC3)cc2F)N1CC(F)(F)CO` (stereo partly drawn) [E 400, 6-(1-(4-(4-((1R,3R)-2-(2,2-difluoro-3-hydroxypropyl)-3-methyl-2,3,4,9-tetrahydro-1H-pyrido[3,4-b]indol-1-yl)-3,5-difluorophenyl)cyclohexane-1-carbonyl)piperidin-4-yl)-2-(2,6-dioxopiperidin-3-yl)-6,7-dihydropyrrolo[3,4-f]isoindole-1,3(2H,5H)-dione], the DC50 was > 100 nM.

On to `C[C@@H]1Cc2cc(O)ccc2[C@H](c2ccc(C3=CCC4(CC3)CCN(C(=O)CN3Cc5cc6c(cc5C3)C(=O)N(C3CCC(=O)NC3=O)C6=O)CC4)cc2)N1CC(F)F` (stereo partly drawn) [E 449, 6-(2-(9-(4-((1S,3R)-2-(2,2-difluoroethyl)-6-hydroxy-3-methyl-1,2,3,4-tetrahydroisoquinolin-1-yl)phenyl)-3-azaspiro[5.5]undec-8-en-3-yl)-2-oxoethyl)-2-(2,6-dioxopiperidin-3-yl)-6,7-dihydropyrrolo[3,4-f]isoindole-1,3(2H,5H)-dione], for which the DC50 is > 100 nM.
